{"source": "ChEMBL document CHEMBL5649166", "about": "“RIP3 induces apoptosis independent of pronecrotic kinase activity” (Mol Cell, 2014)", "key": {"[1]": {"molecular_target": "T1, Cytoplasmic tyrosine-protein kinase BMX (Homo sapiens) (UniProt P51813)", "T1 sequence (whole entry)": "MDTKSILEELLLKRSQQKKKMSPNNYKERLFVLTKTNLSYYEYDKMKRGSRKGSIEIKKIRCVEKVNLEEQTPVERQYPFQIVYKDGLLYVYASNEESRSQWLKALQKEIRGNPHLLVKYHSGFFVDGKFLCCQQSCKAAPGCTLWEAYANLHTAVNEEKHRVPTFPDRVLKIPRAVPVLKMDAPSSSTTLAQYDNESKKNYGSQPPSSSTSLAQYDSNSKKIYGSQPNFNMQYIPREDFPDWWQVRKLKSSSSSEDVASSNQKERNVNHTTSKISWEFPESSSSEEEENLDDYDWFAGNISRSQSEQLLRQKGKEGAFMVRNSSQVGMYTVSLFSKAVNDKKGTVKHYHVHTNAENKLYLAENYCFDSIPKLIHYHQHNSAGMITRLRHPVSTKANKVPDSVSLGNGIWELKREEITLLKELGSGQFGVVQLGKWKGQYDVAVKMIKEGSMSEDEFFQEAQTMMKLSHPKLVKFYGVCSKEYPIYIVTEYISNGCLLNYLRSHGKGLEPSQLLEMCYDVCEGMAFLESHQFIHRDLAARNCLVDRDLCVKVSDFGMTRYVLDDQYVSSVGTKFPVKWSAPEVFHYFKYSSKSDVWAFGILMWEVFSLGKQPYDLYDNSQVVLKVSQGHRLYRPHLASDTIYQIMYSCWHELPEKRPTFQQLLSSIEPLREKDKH", "assay": "Inhibition of human BMX/ETK using poly[Glu:Tyr] (4:1) as substrate at 1 uM in presence of 32P-ATP by Hotspot assay relative to control; values are per cent of control"}, "[2]": {"molecular_target": "T2, Serine/threonine-protein kinase Nek1 (Homo sapiens) (UniProt Q96PY6)", "T2 sequence (whole entry)": "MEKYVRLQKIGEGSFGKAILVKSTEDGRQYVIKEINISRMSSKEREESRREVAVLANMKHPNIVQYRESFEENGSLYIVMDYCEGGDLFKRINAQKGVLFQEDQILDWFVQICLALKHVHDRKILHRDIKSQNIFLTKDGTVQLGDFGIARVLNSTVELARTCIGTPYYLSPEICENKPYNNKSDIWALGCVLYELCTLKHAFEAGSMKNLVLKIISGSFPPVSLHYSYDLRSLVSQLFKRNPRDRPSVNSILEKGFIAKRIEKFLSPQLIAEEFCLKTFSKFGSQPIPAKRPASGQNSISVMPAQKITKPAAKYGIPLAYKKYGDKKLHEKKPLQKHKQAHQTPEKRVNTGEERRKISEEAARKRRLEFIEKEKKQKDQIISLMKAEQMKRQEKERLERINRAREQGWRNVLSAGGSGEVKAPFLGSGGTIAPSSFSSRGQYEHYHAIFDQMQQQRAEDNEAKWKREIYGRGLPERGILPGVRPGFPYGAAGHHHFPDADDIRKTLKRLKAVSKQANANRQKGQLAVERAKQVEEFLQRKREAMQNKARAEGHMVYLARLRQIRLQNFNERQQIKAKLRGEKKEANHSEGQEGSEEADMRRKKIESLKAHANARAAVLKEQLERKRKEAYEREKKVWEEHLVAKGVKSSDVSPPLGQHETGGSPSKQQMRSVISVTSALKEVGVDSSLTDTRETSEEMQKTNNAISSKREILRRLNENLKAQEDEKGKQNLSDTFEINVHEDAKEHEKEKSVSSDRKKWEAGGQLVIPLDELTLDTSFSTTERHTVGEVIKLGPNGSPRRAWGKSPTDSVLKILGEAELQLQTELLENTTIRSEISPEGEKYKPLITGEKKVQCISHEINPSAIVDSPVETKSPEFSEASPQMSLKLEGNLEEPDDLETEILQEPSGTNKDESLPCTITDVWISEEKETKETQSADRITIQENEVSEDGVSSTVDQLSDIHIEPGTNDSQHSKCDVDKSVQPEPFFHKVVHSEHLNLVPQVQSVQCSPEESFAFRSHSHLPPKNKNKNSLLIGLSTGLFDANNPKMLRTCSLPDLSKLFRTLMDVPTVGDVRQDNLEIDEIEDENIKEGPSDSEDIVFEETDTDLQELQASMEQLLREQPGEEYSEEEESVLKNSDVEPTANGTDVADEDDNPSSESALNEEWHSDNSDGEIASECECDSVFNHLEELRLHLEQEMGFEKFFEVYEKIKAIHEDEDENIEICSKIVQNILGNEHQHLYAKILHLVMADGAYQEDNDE", "assay": "Inhibition of human NEK1 using myelin basic protein as substrate at 1 uM in presence of 32P-ATP by Hotspot assay relative to control; values are per cent of control"}}}
{"compound": "Cc1cc(-c2cnc(N)c3c(-c4ccc5scnc5c4)csc23)n(C)n1", "values": [{"measurement": "residual activity", "setting": "[1]", "value": 91.1, "unit": "%"}, {"measurement": "residual activity", "setting": "[2]", "value": 97.3, "unit": "%"}]}
{"compound": "CC(C)S(=O)(=O)c1ccc2nccc(Nc3ccc4scnc4c3)c2c1", "values": [{"measurement": "residual activity", "setting": "[1]", "value": 69.9, "unit": "%"}, {"measurement": "residual activity", "setting": "[2]", "value": 88.2, "unit": "%"}]}
{"compound": "CNC(=O)c1ccc2c(c1)ncn2-c1ccc(CC(=O)OC(C)(C)C)cc1", "values": [{"measurement": "residual activity", "setting": "[1]", "value": 83.5, "unit": "%"}, {"measurement": "residual activity", "setting": "[2]", "value": 96.4, "unit": "%"}]}
